Data published in patent US8685966B2, “GRP94 inhibitors” (University of Kansas, priority 2011, dated 2014).
Entries after “also recorded” stand apart in the source; their conditions may differ. Like-named read-outs stand apart in the source and are kept apart here.

What was measured:
[1] = target: yHsp82 (yeast homolog of Hsp90β) (Saccharomyces cerevisiae, UniProt P02829); test: Binding affinity by fluorescent quenching, yHsp82; settings: read-out: Kd value for yHsp82 (yeast homolog of Hsp90β), FIG. 1B
Grp94 [2] = target: Grp94 (Canis lupus familiaris, UniProt P41148); test: Binding affinity by fluorescent quenching, Grp94
HeLa cells = test: HeLa cell survival (XTT assay), GRP94-sufficient or -deficient cells; type: cell-based; settings: Homo sapiens, 48 hrs, regardless of presence of GRP94, read-out: IC50 for HeLa cell viability
Procedure: GRP94 and BiP were detected by the anti-KDEL antibody. *, an unknown KDEL-containing band. […] Cell survival was measured by XTT assay (n=4).
Similar results were obtained with other cell lines (e.g. C2C12 in FIG. 6).

BiP expression = test: Induction of BiP expression (immunoblot); type: cell-based
[3] = tested on: cytosolic Hsp90 (Hsp90α and Hsp90β); test: Western blot of Hsp90α/β client proteins (Raf, Akt) in HEK293 cell lysates; type: cell-based, human; settings: for concentration at which Hsp90α/β client proteins (Raf, Akt) are degraded/affected: HEK293, Western blot
Procedure: As previously mentioned, it has been shown that Grp94 is not essential for tissue culture cell viability.^28 In contrast, loss of functional Hsp90α or Hsp90β results in cell death. […]. […] To support these findings, western blot analyses of Hsp90α/β client proteins were performed from HEK293 cell lysates. […].
Briefly, HEK293 cells were plated in 6-well plates and treated with various concentrations of drug, GDA in DMSO (1% DMSO final concentration), or vehicle (DMSO) for 24 h. Cells were harvested in cold PBS and lysed in mammalian protein extraction reagent (MPER, Pierce) and protease inhibitors (Roche) on ice for 1 h. Lysates were clarified at 14,000 g for 10 min at 4° C. Protein concentrations were determined with the Pierce BCA assay kit per the manufacturer's instructions. Equal amounts of protein (10 μg) were electrophoresed under reducing conditions, transferred to a PVDF membrane, and immunoblotted with the corresponding specific antibodies. Membranes were incubated with an appropriate horseradish peroxidase-labeled secondary anti-body, developed with chemiluminescent substrate, and visualized.

[4] = tested on: MCF7 (ER+) breast cancer cells; test: Anti-proliferative activity, MCF7; type: cell-based, human; settings: said to be mimicked by the client degradation value; read-out: observed IC50 in MCF7
Procedure: (§1) As previously mentioned, it has been shown that Grp94 is not essential for tissue culture cell viability.^28 In contrast, loss of functional Hsp90α or Hsp90β results in cell death. Therefore, we investigated the anti-proliferative effects of compounds 1-5 against two breast cancer cells, MCF7 (ER+) and SKBR3 (Her2 overexpressing, ER—), and against the non-transformed HEK293 cells. […] To support these findings, western blot analyses of Hsp90α/β client proteins were performed from HEK293 cell lysates.

Grp94 [5] = target: T1, Grp94 (Homo sapiens, UniProt P14625); test: Toll trafficking assay in Toll-transfected HEK293 cells; type: cell-based; settings: Toll presentation inhibition versus Western blot of Hsp90-dependent client proteins
T1 construct: endogenous in cells; host or cells: HEK293 (transfected only with pcDNA6B-Toll-Flag, the read-out client)

[6] = tested on: SKBR3 (Her2 overexpressing, ER—) breast cancer cells; test: Anti-proliferative activity, SKBR3; type: cell-based, human; settings: said to be mimicked by the client degradation value; read-out: observed IC50 in SkBR3
Procedure: as §1

IGF-II secretion [7] = settings: serum-starved C2C12 myoblast cells; cited from earlier work
C2C12 cells = test: C2C12 cell viability (XTT assay); settings: same treatment as IGF-II assay
Procedure: The viability of cells treated as in A was measured at each of the indicated concentrations by the XTT assay.
C2C12 cells (ATCC, Rockville, Md.) were induced to differentiate either by complete withdrawal of serum or by shifting to medium supplemented with 2% house serum. […] Cell growth was measured with the XTT formazan colorimetric assay (Roche), cells were grown in 3% serum, to limit the background of the assay.

IGF-II secretion [8] = test: IGF-II secretion by serum-starved C2C12 cells (ELISA); type: cell-based, mouse; settings: 10 μM
Procedure: IGF-II is a second well-defined Grp94-dependent client protein and active Grp94 is required for the secretion of IGF-11 (Ostrovsky et al., 2009).
For IGF-II ELISA, plates were coated with anti-IGF-II (MAb 792, R&D Systems) and incubated with the test cell media. The bound IGF-II was detected with a biotinylated anti-IGF-II antibody (BAF792, R&D Systems) and developed with streptavidin-HRP (R&D Systems) according to the manufacturer's recommended procedure. Optical density units were converted to concentrations of the growth factor with a standard curve generated with recombinant IGF-II (792-MG) (R&D Systems). Data were acquired in duplicate on a microtiter-plate reader (Dynatech Laboratories, Chantilly, Va.) at 450 nm.

cytosolic Hsp90 = test: Akt stability in the BiP induction experiment (immunoblot); type: cell-based; settings: same concentrations as BiP induction
Procedure: NIH-3T3 cells were treated with 25 μM of 17-AAG (AAG), 10 μM of RDC or 0-50 μM of 2. After 18 hrs cells were harvested for SDS-PAGE and analyzed by immunoblotting. Grp94, BiP and PDIA6 were detected with the monoclonal anti-KDEL antibody, AKT by rabbit anti-serum. 14-3-3 served as loading control. Numbers below BiP, Grp94, and AKT bands are the relative expression levels, determined by densitometry.
Inhibition of Hsp90 is also known to induce expression of Hsp70 and this response is useful as a diagnostic tool (FIG. 11).^61-62 A parallel response exists when Grp94 expression is ablated by RNAi, or when its activity is inhibited by RDC or 17-AAG: a transcriptional response is initiated that leads to upregulation of expression of BiP, the ER member of the Hsp70 family (Eletto et al., submitted). We therefore assessed the ability of 2 to cause BiP up-regulation, in comparison to pan-Hsp90 inhibitors. […] However, at these concentrations, the compound also destabilized Akt, a hallmark of inhibition of cytosolic Hsp90 (FIG. 12).

[9] = tested on: Drosophila larvae (w1118); test: Drosophila larval growth on supplemented fly food; type: in vivo
Source text: In the absence of zygotic expression of Gp93, however, larvae display a pronounced growth defect, commensurate with disrupted gut epithelial morphology, decreased gut nutrient uptake, and marked aberrations in copper cell structure and function. As a consequence, loss of Gp93 expression is larval lethal in Drosophila. […]. […] In parallel experiments, larval gut tissue was obtained from each of the feeding conditions and gut epithelial morphology evaluated by fluorescence microscopy. […] Pharmacokinetic studies of compound absorption and metabolism may provide addition insights into this partial phenotypic behavior.
Compound effects on Drosophila larval growth were examined as described in 26. […]

[10] = tested on: National Cancer Institute 60-cell panel (NCI-60); test: NCI 60-cell panel cytotoxicity profile; type: cell-based
Source text: This should not dampen excitement for selective Grp94 inhibitors, as numerous studies have shown 3-dimensional tumor response to be drastically different from cell culture responses. Requisite studies are underway to understand the effect of Grp94 inhibition on 3-dimensional tumor models.

[11] = read-out: Kd value for Grp94, fluorescent quenching, FIG. 1B
[12] = read-out: kd for binding to the Hsp90 isoform GRP94

Grp94 (Canis lupus familiaris, UniProt P41148), sequence (P41148 22-804): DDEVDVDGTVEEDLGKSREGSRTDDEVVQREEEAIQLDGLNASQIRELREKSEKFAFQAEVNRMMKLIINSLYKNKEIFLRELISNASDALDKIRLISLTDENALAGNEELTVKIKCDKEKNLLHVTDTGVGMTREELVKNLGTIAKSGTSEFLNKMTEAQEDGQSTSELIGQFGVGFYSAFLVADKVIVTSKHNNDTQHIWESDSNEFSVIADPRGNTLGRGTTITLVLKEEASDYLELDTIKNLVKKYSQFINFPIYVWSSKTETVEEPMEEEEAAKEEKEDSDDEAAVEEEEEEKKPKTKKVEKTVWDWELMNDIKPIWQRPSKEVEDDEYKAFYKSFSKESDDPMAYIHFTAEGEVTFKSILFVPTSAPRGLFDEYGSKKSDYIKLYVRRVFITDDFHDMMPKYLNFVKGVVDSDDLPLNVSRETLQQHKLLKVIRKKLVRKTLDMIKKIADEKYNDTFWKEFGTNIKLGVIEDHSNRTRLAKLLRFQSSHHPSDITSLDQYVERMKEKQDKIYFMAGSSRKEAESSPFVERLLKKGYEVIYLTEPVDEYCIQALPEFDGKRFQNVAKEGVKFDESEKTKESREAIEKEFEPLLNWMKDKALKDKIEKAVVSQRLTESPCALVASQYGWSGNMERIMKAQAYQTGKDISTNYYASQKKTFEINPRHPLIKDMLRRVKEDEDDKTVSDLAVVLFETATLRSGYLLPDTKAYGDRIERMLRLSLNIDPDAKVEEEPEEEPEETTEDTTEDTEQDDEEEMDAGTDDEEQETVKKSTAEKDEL
yHsp82 (yeast homolog of Hsp90β), sequence (P02829 whole entry): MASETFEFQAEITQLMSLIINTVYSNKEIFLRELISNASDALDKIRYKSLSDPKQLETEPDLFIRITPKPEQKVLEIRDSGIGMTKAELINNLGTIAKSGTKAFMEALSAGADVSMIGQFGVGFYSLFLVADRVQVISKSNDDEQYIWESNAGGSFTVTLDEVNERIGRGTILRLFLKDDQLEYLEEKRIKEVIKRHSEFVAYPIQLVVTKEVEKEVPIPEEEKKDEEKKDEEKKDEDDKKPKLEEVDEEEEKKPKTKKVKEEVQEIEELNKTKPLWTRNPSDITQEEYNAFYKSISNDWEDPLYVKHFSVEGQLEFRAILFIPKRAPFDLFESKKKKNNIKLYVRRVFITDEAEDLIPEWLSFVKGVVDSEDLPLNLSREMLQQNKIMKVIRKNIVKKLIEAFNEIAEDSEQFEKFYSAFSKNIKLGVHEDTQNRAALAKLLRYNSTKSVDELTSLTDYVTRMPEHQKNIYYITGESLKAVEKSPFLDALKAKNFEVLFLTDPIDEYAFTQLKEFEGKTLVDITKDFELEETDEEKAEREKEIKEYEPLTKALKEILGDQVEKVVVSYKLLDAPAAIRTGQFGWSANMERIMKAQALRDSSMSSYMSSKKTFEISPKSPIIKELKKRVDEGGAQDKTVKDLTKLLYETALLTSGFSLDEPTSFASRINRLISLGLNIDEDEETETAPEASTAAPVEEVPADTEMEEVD
T1 sequence (P14625 22-803): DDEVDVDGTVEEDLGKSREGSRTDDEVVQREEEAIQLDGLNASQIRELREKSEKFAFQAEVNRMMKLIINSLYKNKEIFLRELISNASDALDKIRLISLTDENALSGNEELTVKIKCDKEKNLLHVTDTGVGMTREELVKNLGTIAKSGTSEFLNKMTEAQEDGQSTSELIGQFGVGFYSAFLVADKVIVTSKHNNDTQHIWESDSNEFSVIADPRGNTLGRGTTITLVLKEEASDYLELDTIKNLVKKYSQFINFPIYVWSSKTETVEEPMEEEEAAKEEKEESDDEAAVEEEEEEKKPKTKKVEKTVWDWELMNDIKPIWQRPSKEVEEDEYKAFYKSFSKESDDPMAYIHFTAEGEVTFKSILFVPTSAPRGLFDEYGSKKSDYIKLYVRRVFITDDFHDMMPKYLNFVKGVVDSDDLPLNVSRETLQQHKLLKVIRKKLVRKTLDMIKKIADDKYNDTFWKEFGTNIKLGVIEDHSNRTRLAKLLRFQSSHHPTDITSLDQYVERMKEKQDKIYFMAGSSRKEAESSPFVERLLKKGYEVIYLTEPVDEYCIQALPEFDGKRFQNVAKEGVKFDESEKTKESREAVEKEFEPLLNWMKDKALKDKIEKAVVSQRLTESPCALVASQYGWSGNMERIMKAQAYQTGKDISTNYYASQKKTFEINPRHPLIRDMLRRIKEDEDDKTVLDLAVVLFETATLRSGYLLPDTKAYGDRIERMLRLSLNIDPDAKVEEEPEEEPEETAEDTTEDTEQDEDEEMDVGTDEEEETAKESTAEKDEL

COC(=O)c1c(O)cc(O)c(Cl)c1CCC(=O)NC1=CC(=O)C(OC)=CC1=O [Radamide]
Kd [1]: 870 ± 140 nM | fold higher binding affinity for full-length Grp94 than yHsp82 (Grp94 [2]; full-length Grp94 vs yHsp82): approximately 2 fold | Kd (Grp94 [2]; [11]): 520 ± 130 nM | Kd (Grp94 [2]; [12]): 254 nM

C[C@@H]1C[C@H]2O[C@@H]2/C=C\C=C\C(=O)Cc2c(Cl)c(O)cc(O)c2C(=O)O1 [RDC, radicicol]
IC50 (HeLa cells): 8000 nM | BiP up-regulation (BiP expression; 10 μM): did cause BiP up-regulation

cis-radamide [cRDA]
Kd [1]: 240 ± 120 nM | Kd (Grp94 [2]; [11]): 110 ± 20 nM | Kd (Grp94 [2]; [12]): 110 nM | concentration at which Hsp90α/β client proteins (Raf, Akt) are degraded/affected [3]: ~1 µM | IC50 [4]: ~1000 nM | selectivity for GRP94 versus cytoplasmic Hsp90 α/β (Grp94 [5]): minimal selectivity | IC50 [6]: ~1000 nM

C=CCNC1=C2C[C@@H](C)C[C@H](OC)[C@H](O)[C@@H](C)/C=C(\C)[C@H](OC(N)=O)[C@@H](OC)/C=C\C=C(/C)C(=O)NC(=CC1=O)C2=O [Compound 17-AAG, 17-(allylamino)-17-demethoxygeldanamycin]
BiP up-regulation (BiP expression; 25 μM, data not shown): did cause BiP up-regulation | secretion of IGF-II (previously demonstrated) (IGF-II secretion [7]): prevent the secretion of IGF-II

COC(=O)c1c(O)cc(O)c(Cl)c1CCc1nccn1Cc1ccccc1 [Compound 2, Methyl 2-(2-(1-benzyl-1H-imidazol-2-yl)ethyl)-3-chloro-4,6-dihydroxybenzoate]
effect on cell viability (C2C12 cells): little effect on cell viability | HSP70 induction ([3]; HEK293, 100 μM): induction of HSP70 | concentration at which Hsp90α/β client proteins (Raf, Akt) are degraded/affected [3]: 100 µM | reduction of IGF-II secretion (IGF-II secretion [8]): Approximately 60% | concentration at which Akt is destabilized (cytosolic Hsp90): above 200 μM | BiP up-regulation (BiP expression; 0-75 μM, C2C12 cells): did not lead to up-regulation of BiP | concentration inducing BiP expression (BiP expression; resembles RDC): above 200 μM | Drosophila larval growth ([9]; 250 μg/ml to 1 mg/ml in fly food, 96 hours): dramatic growth phenotype; also recorded: stunted the growth of Drosophila larvae in a dose-dependent manner | larval gut copper cell structure ([9]; fluorescence microscopy of gut tissue, data not shown): No grossly discernible effects on copper cell structure | cytotoxicity across all 60 transformed cell lines [10]: negligible cytotoxicity
